# In ChEMBL document CHEMBL1201862, “PubChem BioAssay data set” (2004):
#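 How tested: cells in 96-well plates exposed to compound for 48 hours at five concentrations. Abbreviation: GI50, concentration required for 50% inhibition of growth.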 Calls of active or inactive are those of the source. Cut-off read from the data, not from the text of the source: active = GI50 up to about 1.1 µM and inactive = higher.
# Assays:
# Experiment in all cases: growth of human tumour cells (NCI), 48 h
# OVCAR-5 = tested on: OVCAR-5
# OVCAR-3 = tested on: OVCAR-3
# SK-MEL-28 = tested on: SK-MEL-28
# MCF7 = tested on: MCF7
# MDA-MB-231 = tested on: MDA-MB-231
# SNB-19 = tested on: SNB-19
# HOP-92 = tested on: HOP-92
# NCI/ADR-RES = tested on: NCI/ADR-RES
# RXF 393 = tested on: RXF 393
# CCRF-CEM = tested on: CCRF-CEM
# 786-0 = tested on: 786-0
# IGROV-1 = tested on: IGROV-1
# LOX IMVI = tested on: LOX IMVI
# K562 = tested on: K562
# HCT-116 = tested on: HCT-116
# HCC 2998 = tested on: HCC 2998
# RPMI-8226 = tested on: RPMI-8226
# NCI-H460 = tested on: NCI-H460
# MDA-N = tested on: MDA-N
# EKVX = tested on: EKVX
Compound,GI50 (OVCAR-5),GI50 (OVCAR-3),GI50 (SK-MEL-28),GI50 (MCF7),GI50 (MDA-MB-231),GI50 (SNB-19),GI50 (HOP-92),GI50 (NCI/ADR-RES),GI50 (RXF 393),GI50 (CCRF-CEM),GI50 (786-0),GI50 (IGROV-1),GI50 (LOX IMVI),GI50 (K562),GI50 (HCT-116),GI50 (HCC 2998),GI50 (RPMI-8226),GI50 (NCI-H460),GI50 (MDA-N),GI50 (EKVX)
O=c1c2ccccc2[nH]n1Cc1ccccc1,> 100 µM (inactive),> 100 µM (inactive),> 100 µM (inactive),> 100 µM (inactive),> 100 µM (inactive),> 100 µM (inactive),> 100 µM (inactive),> 100 µM (inactive),> 100 µM (inactive),> 100 µM (inactive),> 100 µM (inactive),> 100 µM (inactive),> 100 µM (inactive),> 100 µM (inactive),> 100 µM (inactive),> 100 µM (inactive),> 100 µM (inactive),> 100 µM (inactive),> 100 µM (inactive),> 100 µM (inactive)
Oc1ccc(Cl)cc1C1=NC(NCNC2=NC(c3ccccc3)CC(c3cc(Cl)ccc3O)=N2)=NC(c2ccccc2)C1 (centres undefined),44.1 µM (inactive),60.1 µM (inactive),> 100 µM (inactive),20.9 µM (inactive),> 100 µM (inactive),> 100 µM (inactive),> 100 µM (inactive),82.4 µM (inactive),37.7 µM (inactive),61 µM (inactive),> 100 µM (inactive),61.2 µM (inactive),> 100 µM (inactive),39 µM (inactive),56 µM (inactive),> 100 µM (inactive),63.4 µM (inactive),87.1 µM (inactive),79.1 µM (inactive),> 100 µM (inactive)
COc1cc(O)c2c(=O)cc(C3(OC(C)=O)C=CC(OC4OC(CO)C(O)C(O)C4O)C=C3)oc2c1 (centres undefined),> 100 µM (inactive),> 100 µM (inactive),> 100 µM (inactive),> 100 µM (inactive),> 100 µM (inactive),> 100 µM (inactive),> 100 µM (inactive),> 100 µM (inactive),> 100 µM (inactive),> 100 µM (inactive),> 100 µM (inactive),> 100 µM (inactive),> 100 µM (inactive),> 100 µM (inactive),> 100 µM (inactive),> 100 µM (inactive),> 100 µM (inactive),> 100 µM (inactive),> 100 µM (inactive),> 100 µM (inactive)
CCC(C)C1NC(=O)C(NC(=O)C(CC(C)C)N(C)C(=O)[C@@H]2C=CCN2C(=O)[C@H](C)O)C(C)OC(=O)[C@H](Cc2ccc(OC)cc2)N(C)C(=O)[C@@H]2CCCN2C(=O)[C@H](CC(C)C)NC(=O)C(C)C(=O)[C@H](C(C)C)OC(=O)CC1O (some centres undefined),0.0137 µM (active),0.00393 µM (active),0.00138 µM (active),0.00164 µM (active),0.00608 µM (active),0.00374 µM (active),0.00643 µM (active),0.0419 µM (active),< 0.01 µM (active),0.00164 µM (active),0.00185 µM (active),0.00256 µM (active),0.00242 µM (active),0.0021 µM (active),0.00103 µM (active),0.00306 µM (active),0.00267 µM (active),0.00215 µM (active),0.00293 µM (active),< 0.01 µM (active)
NC(=S)N/N=C1/CCCC2CCCC[C@@H]12 (some centres undefined),> 100 µM (inactive),> 100 µM (inactive),> 100 µM (inactive),> 100 µM (inactive),> 100 µM (inactive),> 100 µM (inactive),> 100 µM (inactive),> 100 µM (inactive),> 100 µM (inactive),> 100 µM (inactive),> 100 µM (inactive),> 100 µM (inactive),> 100 µM (inactive),> 100 µM (inactive),–,> 100 µM (inactive),> 100 µM (inactive),> 100 µM (inactive),> 100 µM (inactive),35 µM (inactive)
CCCCC(C(=O)NCCNC(=O)CCC(=O)N(C)O)C(=O)NCCNC(=O)CCC(=O)N(C)O,> 100 µM (inactive),> 100 µM (inactive),> 100 µM (inactive),> 100 µM (inactive),> 100 µM (inactive),> 100 µM (inactive),> 100 µM (inactive),> 100 µM (inactive),> 100 µM (inactive),> 100 µM (inactive),> 100 µM (inactive),> 100 µM (inactive),> 100 µM (inactive),> 100 µM (inactive),> 100 µM (inactive),> 100 µM (inactive),> 100 µM (inactive),> 100 µM (inactive),> 100 µM (inactive),> 100 µM (inactive)
COC(=O)Cc1c([C@@H]2Nc3ccccc3[C@H]2CC(=O)OC)[nH]c2ccccc12,27.8 µM (inactive),18.3 µM (inactive),28.3 µM (inactive),25.4 µM (inactive),18.5 µM (inactive),55.6 µM (inactive),45.8 µM (inactive),26.9 µM (inactive),25.7 µM (inactive),20.7 µM (inactive),58.2 µM (inactive),9.79 µM (inactive),21.6 µM (inactive),11 µM (inactive),38.9 µM (inactive),45.1 µM (inactive),14.9 µM (inactive),21.1 µM (inactive),28.7 µM (inactive),43 µM (inactive)
COC1(C)CP(=O)(OC(C)C)CC(C)=C1Cl (centres undefined),18.8 µM (inactive),10.7 µM (inactive),21.7 µM (inactive),4.67 µM (inactive),15.9 µM (inactive),28.4 µM (inactive),11.2 µM (inactive),17.8 µM (inactive),21.4 µM (inactive),3.66 µM (inactive),19 µM (inactive),11.6 µM (inactive),11.7 µM (inactive),3.36 µM (inactive),6.37 µM (inactive),27 µM (inactive),3.78 µM (inactive),18.3 µM (inactive),13.2 µM (inactive),14.6 µM (inactive)
Cn1c2ccccc2c2c3c(c4c5ccccc5n(C5OC(CO)C(O)C(O)C5O)c4c21)C(=O)OC3=O (centres undefined),> 100 µM (inactive),> 100 µM (inactive),> 100 µM (inactive),> 100 µM (inactive),> 100 µM (inactive),> 100 µM (inactive),> 100 µM (inactive),> 100 µM (inactive),> 100 µM (inactive),> 100 µM (inactive),> 100 µM (inactive),> 100 µM (inactive),> 100 µM (inactive),> 100 µM (inactive),> 100 µM (inactive),> 100 µM (inactive),> 100 µM (inactive),> 100 µM (inactive),> 100 µM (inactive),> 100 µM (inactive)
CCCCCCCCCCCCCCCCCCNc1ccn(C2OC(COP(=O)(O)OCC3OC(n4cc(F)c(=O)[nH]c4=O)CC3O)C(O)C2O)c(=O)n1 (centres undefined),15 µM (inactive),7.67 µM (inactive),> 100 µM (inactive),0.274 µM (active),> 100 µM (inactive),20.2 µM (inactive),> 100 µM (inactive),1.33 µM (inactive),12.6 µM (inactive),1.24 µM (inactive),2.19 µM (inactive),10.1 µM (inactive),1.36 µM (inactive),12.1 µM (inactive),2.98 µM (inactive),< 0.01 µM (active),1.44 µM (inactive),3.53 µM (inactive),46.6 µM (inactive),14.5 µM (inactive)
O=c1[nH]c(=O)n(C/C=C/CBr)nc1Br,16.9 µM (inactive),11.6 µM (inactive),14.9 µM (inactive),10.1 µM (inactive),3.49 µM (inactive),14.7 µM (inactive),13.4 µM (inactive),17.6 µM (inactive),12 µM (inactive),7.74 µM (inactive),12.6 µM (inactive),15.9 µM (inactive),1.81 µM (inactive),15.8 µM (inactive),13 µM (inactive),14.9 µM (inactive),4.08 µM (inactive),17.5 µM (inactive),14.1 µM (inactive),15.1 µM (inactive)
COc1cc2c(cc1OCc1ccccc1)NC(=S)[C@@H]1CCCN1C2=S,> 100 µM (inactive),43.1 µM (inactive),> 100 µM (inactive),95.5 µM (inactive),85.3 µM (inactive),> 100 µM (inactive),94 µM (inactive),> 100 µM (inactive),> 100 µM (inactive),> 100 µM (inactive),88.1 µM (inactive),80.7 µM (inactive),55.5 µM (inactive),45.2 µM (inactive),> 100 µM (inactive),> 100 µM (inactive),> 100 µM (inactive),> 100 µM (inactive),> 100 µM (inactive),> 100 µM (inactive)
O=C(OCc1ccccc1)N1CCNCCNCC1,> 100 µM (inactive),> 100 µM (inactive),> 100 µM (inactive),> 100 µM (inactive),> 100 µM (inactive),> 100 µM (inactive),> 100 µM (inactive),> 100 µM (inactive),> 100 µM (inactive),> 100 µM (inactive),> 100 µM (inactive),> 100 µM (inactive),> 100 µM (inactive),> 100 µM (inactive),> 100 µM (inactive),> 100 µM (inactive),> 100 µM (inactive),> 100 µM (inactive),> 100 µM (inactive),> 100 µM (inactive)
